Results on 19 compounds are retold here after ChEMBL document CHEMBL4402557, “Nidufexor (LMB763), a Novel FXR Modulator for the Treatment of Nonalcoholic Steatohepatitis” (J Med Chem, 2020).

In series [1] the target is T1, Bile acid receptor (Homo sapiens, UniProt Q96RI1).
T1 sequence (Q96RI1 whole entry): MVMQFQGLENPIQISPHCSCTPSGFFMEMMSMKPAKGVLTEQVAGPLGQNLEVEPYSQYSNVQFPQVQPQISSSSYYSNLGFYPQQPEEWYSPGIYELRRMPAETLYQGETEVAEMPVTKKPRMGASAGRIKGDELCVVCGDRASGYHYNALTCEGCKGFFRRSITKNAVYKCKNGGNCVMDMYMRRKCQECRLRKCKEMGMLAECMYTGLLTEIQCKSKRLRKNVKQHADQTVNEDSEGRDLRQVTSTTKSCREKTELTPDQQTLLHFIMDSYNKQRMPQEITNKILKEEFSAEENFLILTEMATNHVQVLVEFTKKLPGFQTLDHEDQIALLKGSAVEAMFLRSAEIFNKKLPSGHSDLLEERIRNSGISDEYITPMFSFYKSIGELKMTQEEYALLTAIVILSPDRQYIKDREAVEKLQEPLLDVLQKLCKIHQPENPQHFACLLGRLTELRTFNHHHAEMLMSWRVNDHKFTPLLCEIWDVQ
Put plainly: Agonist activity at GST-tagged human FXR-LBD (193 to 472 residues) using biotinylated SRC-1 peptide as substrate incubated for 1 hrs by HTRF assay.

A short description of series [2]: Solubility of compound in pH 6.5 FASSIF at 2 mg measured for 5 to 60 mins by UV spectroscopic method. The series is classed as physicochemical.
A short description of series [3]: Oral bioavailability in Wistar rat at 10 mg/kg in presence of PEG 300/D5W(3:1). Format: ADME, organism-based. The following applies: in vivo.
Series [4] is described as follows: Permeability of the compound by PAMPA. The series is classed as ADME.
The nature of series [5]: Clearance in Wistar rat at 3 mg/kg, iv. The following applies: in vivo. The series is classed as ADME, organism-based.
Series [6] can be described thus: Half life in Wistar rat at 3 mg/kg, iv. The series is classed as ADME, organism-based. The conditions noted are these: in vivo.
Series [7] in a line: Volume of distribution at steady state in Wistar rat at 3 mg/kg, iv. The series is classed as ADME, organism-based. The following applies: in vivo, read-out: Vdss.
The nature of series [8]: Oral bioavailability in Wistar rat at 100 mg/kg in presence of TRIS salt. Format: ADME, organism-based. The following applies: in vivo.
Series [9] in a line: Oral bioavailability in Wistar rat at 10 mg/kg in presence of 0.5% CMC/0.5% Tween 80. The conditions noted are these: in vivo. Format: ADME, organism-based.
Series [10] can be described thus: Oral bioavailability in Wistar rat at 10 mg/kg in presence of TRIS salt. The series is classed as ADME, organism-based. The following applies: in vivo.
In series [11] the target is T1, Bile acid receptor. Put plainly: Agonist activity at FXR transfected in human HEK293T cells o-expressing pGL3/hBSEP/luc incubated for 24 hrs by Steady-Glo reagent based luciferase reporter gene assay. Format: cell-based. For orientation: In a reporter assay the amount or activity of a reporter protein is the signal.
The next series deals with Mus musculus. Put plainly: Anti Steato-hepatitic activity in STZ/HFD induced C57BL/6J mouse STAM model assessed as reduction in NAS at 25 mg/kg, po administered via oral gavage once daily for 3 weeks and measured on 9 week by H and E staining based assay. The series is classed as functional, organism-based.
A short description of series [12]: Lipophilicity, logD of compound at pH 6.8. Format: physicochemical. The conditions noted are these: buffer.

SMILES strings stand for the structures. Values after ≈ are worked out from the molar mass of the structure shown. Active and inactive are the calls of the source. The calls are words filed in the database; no cut-off is given here.

What is called EC50 is the concentration at which the effect is half-maximal. Low values mean greater potency, high ones weaker potency. In the case of `CC(=O)NCCN(C)C(=O)c1nn(C)c2c1COc1ccccc1-2`, at Bile acid receptor [1], the EC50 was > 10 µM.
As usually defined, the solubility is the dissolved amount per volume that the medium holds. For `CC(=O)NCCN(Cc1ccccn1)C(=O)c1nn(C)c2c1COc1ccc(Br)cc1-2`, in [2], the solubility was < 2 µM.
On the same count and under the same terms, in the case of `CC(=O)NCCN(Cc1ccccc1)C(=O)c1nn(C)c2c1COc1ccccc1-2` it was > 175 µM.
As a reminder, the bioavailability is the share of a dose that reaches the circulation, judged against a reference dose that is usually intravenous. In general, clearance refers to a measure of how efficiently the substance is removed, as volume per time. Lower therefore signals inefficient removal. For orientation: half-life means how long it takes for the measured level to halve. Take `Cn1nc(C(=O)N(CCNc2cc(C(=O)O)ccc2F)Cc2cccc(F)c2)c2c1-c1cc(F)ccc1OC2`: the bioavailability in [3] came out at 22%; in series [8], 12%; in [9], 17%; in [10], 15%. The same compound came in with a permeability in series [4] of 96%. The clearance in series [5] worked out at 19.9 mL/min/kg. Besides, the half-life in [6] was 1.97 h. Moreover, the Vd in series [7] worked out at 1.43 L/kg. The solubility in series [2] was > 175 µM.
Consider `CC(=O)NCCN(Cc1cccc(F)c1)C(=O)c1nn(C)c2c1COc1ccc(Br)cc1-2`, for which the solubility in series [2] worked out at 80 µM (≈ 40.1 µg/mL).
In series [2], `CC(=O)NCCN(Cc1ccccc1)C(=O)c1nn(C)c2c1COc1ccc(I)cc1-2` registered a solubility of 3 µM (≈ 1.59 µg/mL).
Turning to `CC(=O)NCCN(Cc1ccccc1)C(=O)c1nn(C)c2c1COc1ccc(Br)cc1-2`, the concentration in solution in [2] (solubility) came to 73 µM (≈ 35.3 µg/mL).
Consider `CC(=O)NCCN(Cc1ccccc1)C(=O)c1nn(C(C)C)c2c1COc1ccc(Br)cc1-2`, for which the EC50 on Bile acid receptor [1] came to 6 µM; on Bile acid receptor [11], 2.7 µM.
Regarding `CC(=O)NCCN(Cc1ccc(F)cc1)C(=O)c1nn(C)c2c1COc1ccc(Br)cc1-2`, the solubility in series [2] came to 41 µM (≈ 20.6 µg/mL).
For the compound `CC(=O)NCCNC(=O)c1nn(C)c2c1COc1ccccc1-2`, the EC50 at Bile acid receptor [1] was > 10 µM.
Turning to `CC(=O)NCCN(Cc1ccccc1)C(=O)c1n[nH]c2c1COc1ccc(Br)cc1-2`, the EC50 at Bile acid receptor [1] is > 10 µM; on Bile acid receptor [11], 11 µM.
Turning to `CC(=O)NCCN(Cc1ccccc1)C(=O)c1nn(C)c2c1COc1ccc(Cl)cc1-2`, in series [2], the solubility was > 175 µM.
Still for that read-out and setting: the result for `CC(=O)NCCN(Cc1ccccc1F)C(=O)c1nn(C)c2c1COc1ccc(Br)cc1-2` reads < 2 µM.
For the compound `CC(=O)NCCN(Cc1ccccc1)C(=O)c1nn(C)c2c1COc1ccc(C3CC3)cc1-2`, in [2], the solubility is 9 µM (≈ 4 µg/mL).
`Cn1nc(C(=O)N(CC(=O)Nc2cc(C(=O)O)ccc2F)Cc2cccc(F)c2)c2c1-c1cc(F)ccc1OC2`: the bioavailability in series [3] was 36%; in series [8], 28%; in series [9], 5%; in [10], 56%. In series [4], this compound yielded a permeability of 86%. The compound further displayed a clearance in series [5] of 9.6 mL/min/kg. In [6], this compound gave a half-life of 3.6 h. In series [7], the Vd was determined as 1.6 L/kg. Further, the solubility in [2] is 46 µM (≈ 25.3 µg/mL).
As to `CC(=O)NCCN(Cc1ccccc1)C(=O)c1c2c(nn1C)-c1cc(Br)ccc1OC2`, the EC50 is 6 µM on Bile acid receptor [1] and > 20 µM on Bile acid receptor [11].
For `CC[C@H]1[C@@H](O)[C@@H]2[C@H](CC[C@]3(C)[C@@H]([C@H](C)CCC(=O)O)CC[C@@H]23)[C@@]2(C)CC[C@@H](O)C[C@@H]12`, the result in the series with Mus musculus was inactive.
For `CC(=O)NCCN(C(=O)c1nn(C)c2c1COc1ccc(Cl)cc1-2)C(C)c1ccccc1` (racemic), the EC50 on Bile acid receptor [1] and on Bile acid receptor [11] was > 10 µM each time.
For orientation: logD means lipophilicity at a set pH, counting ionised and neutral species. Low values mean a more hydrophilic compound, high ones a more lipophilic compound. As for `O=C(O)c1cc(F)c2nc(N3[C@@H]4CC[C@H]3C[C@@H](OCc3c(-c5ccccc5OC(F)(F)F)noc3C3CC3)C4)sc2c1` [TROPIFEXOR], the concentration in solution in series [2] (solubility) was 110 µM (≈ 66.4 µg/mL). The compound also displayed a logD in series [12] of 3.2.
